In ChEMBL document CHEMBL5233265, “Recent advances in the design and development of formyl peptide receptor 2 (FPR2/ALX) agonists as pro-resolving agents with diverse therapeutic potential” (Eur J Med Chem, 2021):
Blank lines part the entries; values can stand above or below the compound they belong to.

How the values were obtained:
[1] = target: T1, N-formyl peptide receptor 2 (Homo sapiens, UniProt P25090); assay: Agonist activity at human FPR2 expressed in HEK293 cells assessed as increase in calcium flux incubated for 45 mins by Fluo-4 AM dye based fluorescence assay; assay type: cell-based
T1 sequence (P25090 whole entry): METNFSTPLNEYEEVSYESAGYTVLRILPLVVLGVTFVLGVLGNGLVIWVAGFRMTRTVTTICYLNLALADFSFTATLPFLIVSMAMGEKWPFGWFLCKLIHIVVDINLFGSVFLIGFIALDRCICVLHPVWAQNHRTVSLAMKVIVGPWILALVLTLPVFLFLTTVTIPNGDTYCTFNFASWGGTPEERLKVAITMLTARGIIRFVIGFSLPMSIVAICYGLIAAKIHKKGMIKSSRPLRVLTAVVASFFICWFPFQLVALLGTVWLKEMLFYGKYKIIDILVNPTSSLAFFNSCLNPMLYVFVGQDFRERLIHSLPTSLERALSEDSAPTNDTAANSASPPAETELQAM

[2] = system: Mus musculus; assay: Anti-inflammatory activity against BALB/c mouse assessed as suppression ratio of LPS-induced neutrophil infiltration in lung at 3 mg/kg,po measured after 5.5 hrs by Diff-Quick staining based microscopic analysis; assay type: functional
[3] = target: T2, fMet-Leu-Phe receptor (Homo sapiens) (UniProt P21462); assay: Agonist activity at human FPR1 transfected in HL-60 cells assessed as maximal intracellular calcium flux incubated for 30 mins by Fluo-4 AM dye based FLIPR-fluorometeric assay relative to control; assay type: cell-based; conditions: filed as agonist
T2 sequence (whole entry): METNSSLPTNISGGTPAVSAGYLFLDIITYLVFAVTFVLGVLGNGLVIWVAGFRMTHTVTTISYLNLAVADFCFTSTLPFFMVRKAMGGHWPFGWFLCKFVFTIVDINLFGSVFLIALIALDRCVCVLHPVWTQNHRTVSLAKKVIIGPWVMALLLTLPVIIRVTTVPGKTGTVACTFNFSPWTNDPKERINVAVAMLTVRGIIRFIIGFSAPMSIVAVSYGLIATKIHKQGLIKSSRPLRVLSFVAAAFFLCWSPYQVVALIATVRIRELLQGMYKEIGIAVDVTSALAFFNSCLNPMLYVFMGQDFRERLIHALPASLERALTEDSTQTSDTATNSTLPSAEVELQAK

[4] = system: PMNL; assay: Agonist activity at FPR in human PMNL cells assessed as maximal intracellular calcium mobilization incubated for 30 mins by Fluo-4 AM dye based FLIPR-fluorometeric assay relative to control; assay type: cell-based; conditions: filed as agonist
[5] = target: T1, N-formyl peptide receptor 2; assay: Agonist activity at human FPR2 transfected in HL-60 cells assessed as increase in intracellular calcium flux incubated for 30 mins by Fluo-4 AM dye based FLIPR-fluorometeric assay; assay type: cell-based
[6] = target: T3, N-formyl peptide receptor 2 (Homo sapiens) (UniProt P25090); assay: Agonist activity at human FPR2 transfected in HL-60 cells assessed as maximal intracellular calcium flux incubated for 30 mins by Fluo-4 AM dye based FLIPR-fluorometeric assay relative to control; assay type: cell-based; conditions: filed as agonist
T3 sequence (whole entry): T1 sequence (P25090 whole entry)

[7] = target: T4, fMet-Leu-Phe receptor (Homo sapiens, UniProt P21462); assay: Agonist activity at human FPR1 transfected in HL-60 cells assessed as increase in intracellular calcium flux incubated for 30 mins by Fluo-4 AM dye based FLIPR-fluorometeric assay; assay type: cell-based
T4 sequence (P21462 whole entry): T2 sequence (whole entry)

[8] = Agonist activity at FPR in human PMNL cells assessed as increase in intracellular calcium mobilization incubated for 30 mins by Fluo-4 AM dye based FLIPR-fluorometeric assay; assay type: cell-based; conditions: 0.5 h
[9] = system: Mus musculus; assay: Neuroprotective activity against coronary artery occlusion mouse model assessed as reduction in left ventricular chamber dilatation at 3 mg/kg,po measured after […]; assay type: functional; design: scale not given: the % may be the effect or the level left
[10] = system: HL-60; assay: Inhibition of cell migration in human HL-60 cells incubated for 135 mins by transwell assay; assay type: functional, cell-based; conditions: HL-60, 2.25 h
[11] = target: T1, N-formyl peptide receptor 2; assay: Agonist activity at human FPR2 expressed in CHO-A12 cells assessed as cAMP level incubated for 1.5 hr by HTRF assay; assay type: cell-based
[12] = system: Mus musculus; assay: Neuroprotective activity against angiotensin II induced cardiac fibrosis mouse model assessed as reduction in fibrosis at 3 mg/kg,po qd measured after 3 weeks; assay type: functional; design: scale not given: the % may be the effect or the level left
[13] = system: Mus musculus; assay: Neuroprotective activity against DOCA induced cardiac fibrosis mouse model assessed as reduction in left ventricular fibrosis at 1 mg/kg,po qd measured after 3 weeks; assay type: functional; design: scale not given: the % may be the effect or the level left
[14] = system: Peritoneal macrophage; assay: Induction of phagocytosis in C57BL6 mouse peritoneal macrophages assessed as increase in FITC signal preincubated with compound for 15 mins followed by zymosan addition and measured after 90 mins by Trypan Blue based FITC analysis
[15] = Agonist activity at rat FPR1 expressed in CHO-A12 cells assessed as cAMP level incubated for 1.5 hr by HTRF assay; assay type: cell-based
[16] = system: Mus musculus; assay: Neuroprotective activity against coronary artery occlusion mouse model assessed as reduction in left ventricular chamber dilatation at 0.3 mg/kg,po measured after […]; assay type: functional; design: scale not given: the % may be the effect or the level left
[17] = Agonist activity at rat FPR2 expressed in CHO-A12 cells assessed as cAMP level incubated for 1.5 hr by HTRF assay; assay type: cell-based
[18] = target: T2, fMet-Leu-Phe receptor (Homo sapiens); assay: Agonist activity at human recombinant FPR1 stably transfected in Flp-In-CHO cells assessed as ERK1/2 phosphorylation at 10 uM incubated for 1 hr by Alphascreen fluorescence assay relative to control; assay type: cell-based; conditions: filed as agonist
[19] = target: T1, N-formyl peptide receptor 2; assay: Agonist activity at human recombinant FPR2 stably transfected in Flp-In-CHO cells assessed as increase in intracellular calcium mobilization incubated for 1 hr by Fluo-4 AM dye based fluorescence plate reader assay; assay type: cell-based
[20] = target: T3, N-formyl peptide receptor 2 (Homo sapiens); assay: Agonist activity at human recombinant FPR2 stably transfected in Flp-In-CHO cells assessed as maximal intracellular calcium mobilization at 10 uM incubated for 1 hr by Fluo-4 AM dye based fluorescence plate reader assay relative to control; assay type: cell-based
[21] = target: T4, fMet-Leu-Phe receptor; assay: Agonist activity at human recombinant FPR1 stably transfected in Flp-In-CHO cells assessed as ERK1/2 phosphorylation incubated for 1 hr by Alphascreen fluorescence assay; assay type: cell-based
[22] = target: T2, fMet-Leu-Phe receptor (Homo sapiens); assay: Agonist activity at human recombinant FPR1 stably transfected in Flp-In-CHO cells assessed as maximal intracellular calcium mobilization at 10 uM incubated for 1 hr by Fluo-4 AM dye based fluorescence plate reader assay relative to control; assay type: cell-based
[23] = target: T3, N-formyl peptide receptor 2 (Homo sapiens); assay: Agonist activity at human recombinant FPR2 stably transfected in Flp-In-CHO cells assessed as ERK1/2 phosphorylation at 10 uM incubated for 1 hr by Alphascreen fluorescence assay relative to control; assay type: cell-based
[24] = target: T4, fMet-Leu-Phe receptor; assay: Agonist activity at human recombinant FPR1 stably transfected in Flp-In-CHO cells assessed as increase in intracellular calcium mobilization incubated for 1 hr by Fluo-4 AM dye based fluorescence plate reader assay; assay type: cell-based
[25] = target: T1, N-formyl peptide receptor 2; assay: Agonist activity at human recombinant FPR2 stably transfected in Flp-In-CHO cells assessed as ERK1/2 phosphorylation incubated for 1 hr by Alphascreen fluorescence assay; assay type: cell-based
[26] = target: T1, N-formyl peptide receptor 2; assay: Agonist activity at human FPR2 transfected in HL-60 cells assessed as increase in intracellular calcium flux incubated for 30 mins by Fluo-4 AM dye based fluorometer analysis; assay type: cell-based; conditions: read-out: EC50
[27] = target: T2, fMet-Leu-Phe receptor (Homo sapiens); assay: Agonist activity at human FPR1 transfected in HL-60 cells assessed as maximal intracellular calcium flux incubated for 30 mins by Fluo-4 AM dye based fluorometer analysis relative to control; assay type: cell-based; conditions: filed as agonist
[28] = target: T3, N-formyl peptide receptor 2 (Homo sapiens); assay: Agonist activity at human FPR2 transfected in HL-60 cells assessed as maximal intracellular calcium flux incubated for 30 mins by Fluo-4 AM dye based fluorometer analysis relative to control; assay type: cell-based; conditions: filed as agonist
[29] = target: T4, fMet-Leu-Phe receptor; assay: Agonist activity at human FPR1 transfected in HL-60 cells assessed as increase in intracellular calcium flux incubated for 30 mins by Fluo-4 AM dye based fluorometer analysis; assay type: cell-based; conditions: read-out: EC50
[30] = target: T1, N-formyl peptide receptor 2; assay: Agonist activity at FPR2 (unknown origin) assessed as increase in calcium flux
[31] = system: Mus musculus; assay: Anti-inflammatory activity against BALB/c mouse assessed as suppression ratio of LPS-induced neutrophil infiltration in lung at 1 mg/kg,po measured after 5.5 hrs by Diff-Quick staining based microscopic analysis; assay type: functional
[32] = Agonist activity at FPR in human PMNL cells assessed as increase in intracellular calcium mobilization incubated for 30 mins by Fluo-4 AM dye based fluorometer analysis; assay type: cell-based; conditions: 0.5 h

Emax [3]: 85%
Emax [6]: 80%
EC50 [8]: 19 nM
SMILES: COc1cccc(Cc2c(C)c(C)nn(CC(=O)Nc3ccc(Br)cc3)c2=O)c1
Emax [4]: 85%

Emax [18]: 70%
EC50 [19]: > 10000 nM
Emax [20]: 6%
EC50 [21]: 1000 nM
Emax [22]: 22%
Emax ([23]; filed as agonist): 82%
EC50 [24]: 7940 nM
EC50 [25]: 1580 nM
SMILES: COc1cccc(Cc2cc(C)nn(C(C)C(=O)Nc3ccc(Cl)cc3)c2=O)c1 (racemic)

EC50 [26]: 2900 nM
Emax [27]: 95%
Emax [28]: 130%
EC50 [29]: 1500 nM
SMILES: COc1ccc(NC(=O)N[C@@H](Cc2ccc(O)cc2)C(=O)NCC2(c3ccccc3)CC2)cc1

EC50 [1]: 0.13 nM
SMILES: CCN1C[C@@H](c2ccc(OC)cc2)[C@H](NC(=O)Nc2ccc(F)cc2)C1=O
Ratio [2]: 97.4%

Emax [18]: 78%
EC50 [19]: > 10000 nM
Emax [20]: 4%
EC50 [21]: 1260 nM
Emax [22]: 16%
Emax [23]: 8%
EC50 [24]: > 10000 nM
EC50 [25]: > 10000 nM
SMILES: COc1cccc(Cc2cc(C)nn([C@@H](C)C(=O)Nc3ccc(Cl)cc3)c2=O)c1

EC50 [1]: 0.27 nM
SMILES: COc1ccc(NC(=O)N[C@@H]2/C(=N/OCCO)NC[C@H]2c2c(F)cc(OC)cc2F)cc1
Ratio [31]: 96.8%

Emax [18]: 82%
EC50 [19]: > 10000 nM
Emax [20]: 8%
EC50 [21]: 794 nM
Emax [22]: 38%
Emax ([23]; filed as agonist): 85%
EC50 [24]: 3980 nM
EC50 [25]: 1260 nM
SMILES: COc1cccc(Cc2cc(C)nn([C@H](C)C(=O)Nc3ccc(Cl)cc3)c2=O)c1

EC50 [1]: 0.86 nM
SMILES: COc1cc(F)c([C@@H]2CNC(=O)[C@H]2NC(=O)Nc2ccc(C)cc2)c(F)c1
Ratio [2]: 57%

EC50 [26]: 8900 nM
EC50 [32]: 4500 nM
EC50 [29]: 12500 nM
SMILES: O=C(Cn1c(=O)[nH]cc(-c2ccccc2)c1=O)Nc1ccc(Br)cc1

Further lines, the compound ahead of its results:

SMILES: COc1ccc(C[C@H](NC(=O)Nc2ccc(Cl)cc2)c2noc(CCO)n2)cc1
EC50 [1]: 0.17 nM
Ratio [2]: 94%

SMILES: COc1ccc(Cc2c(C)c(C)nn(CC(=O)Nc3ccc(Br)cc3)c2=O)cc1
Emax [3]: 60%
Emax [4]: 140%
EC50 ([5]; hl-60): 13 nM
Emax [6]: 95%
EC50 ([7]; read-out: EC50): 900 nM
EC50 [8]: 270 nM

SMILES: COc1cc(F)c([C@@H]2CNC(=O)[C@H]2NC(=O)Nc2ccccc2)c(F)c1 [BMS-986235]
Activity [9]: 24%
IC50 [10]: 57 nM
EC50 [11]: 1250 nM
Activity [12]: 89%
Activity [13]: 50%
EC50 [14]: 2 nM
EC50 [15]: 1.5 nM
Activity [16]: 26%
EC50 [17]: 720 nM

SMILES: N/C(=N\C(=O)CCO)[C@H](Cc1ccc(Cl)cc1)NC(=O)Nc1ccc(Cl)cc1
Ratio [2]: 86%

SMILES: COc1ccc(NC(=O)N[C@H](Cc2ccc(O)cc2)C(=O)NCC2(c3ccccc3)CC2)cc1
EC50 ([26]; hl-60): 410 nM
Emax [27]: 55%
Emax [28]: 90%
EC50 ([29]; hl-60): 5100 nM

SMILES: COc1cc(F)c([C@@H]2CN3CCON=C3[C@H]2NC(=O)Nc2ccc(F)cc2)c(F)c1
EC50 [30]: 0.02 nM

SMILES: COc1cccc(Cc2c(-c3ccccc3)c(C)nn(CC(=O)Nc3ccc(Br)cc3)c2=O)c1
Emax [4]: 110%
EC50 [5]: 150 nM
Emax [6]: 115%
EC50 [7]: Not Active
EC50 [8]: 200 nM

SMILES: COc1cccc(-c2cc(C#N)c(C)n(CC(=O)Nc3ccc(Br)cc3)c2=O)c1
EC50 [26]: 120 nM
EC50 [32]: 390 nM
EC50 [29]: 1600 nM

SMILES: N#Cc1ccc(NC(=O)N[C@@H]2C(=O)NC[C@H]2c2cc3c(cc2F)OCC3)cc1
Ratio [31]: 99.2%
